Test results taken from the supplement of paper PMC4862054.

How the values were obtained:
Experiment in all cases: normalised viability (% of control), CellTiter-Blue; higher = more viable cells (about 100 = DMSO control)
Settings in all cases: incubation time: 72 h
[1] = tested on: BT-474
Experimental: (§1)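 DSRT, CellTiter-Blue viability, 72 h incubation. Signal is normalised to DMSO and benzethonium chloride controls. Value is the normalised response at dose 3.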

[2] = tested on: CAL-120
Experimental: as §1

[3] = tested on: CAL-51
Experimental: as §1

[4] = tested on: CAL-85-1
Experimental: as §1

[5] = tested on: DU-4475
Experimental: as §1

[6] = tested on: HCC1143
Experimental: as §1

[7] = tested on: HCC1599
Experimental: as §1

[8] = tested on: HCC1937
Experimental: as §1

[9] = tested on: HDQ-P1
Experimental: as §1

[10] = tested on: Hs578T
Experimental: as §1

[11] = tested on: MDA-MB-231
Experimental: as §1

[12] = tested on: MDA-MB-436
Experimental: as §1

[13] = tested on: MDA-MB-468
Experimental: as §1

[14] = tested on: SK-BR-3
Experimental: as §1

C#Cc1cccc(Nc2ncnc3cc(OCCOC)c(OCCOC)cc23)c1 [Erlotinib] was tested, and the normalised viability ([1]; 100 nM) was 103%, the normalised viability ([2]; 100 nM) was 102% and the normalised viability ([3]; 10 nM) was 102%. For the same compound, the normalised viability ([4]; 10 nM) was 95.4%, the normalised viability ([5]; 10 nM) was 94.9% and the normalised viability ([6]; 100 nM) was 92.9%. It also gave a normalised viability ([7]; 100 nM) of 78%, a normalised viability ([8]; 100 nM) of 106% and a normalised viability ([9]; 10 nM) of 109%. The normalised viability ([10]; 100 nM) was 85.4%, the normalised viability ([11]; 100 nM) was 96.6% and the normalised viability ([12]; 100 nM) was 109%. It also gave a normalised viability ([13]; 100 nM) of 95% and a normalised viability ([14]; 100 nM) of 88.7%.

Compound COc1cc([C@@H]2c3cc4c(cc3[C@@H](O[C@@H]3O[C@@H]5CO[C@@H](C)O[C@H]5[C@H](O)[C@H]3O)[C@H]3COC(=O)[C@H]23)OCO4)cc(OC)c1O [Etoposide] has a normalised viability ([1]; 100 nM) of 108%, a normalised viability ([2]; 100 nM) of 90.8% and a normalised viability ([3]; 10 nM) of 91.1%. The normalised viability ([4]; 10 nM) was 101%, the normalised viability ([5]; 10 nM) was 115% and the normalised viability ([6]; 100 nM) was 84%. It also gave a normalised viability ([7]; 100 nM) of 115%, a normalised viability ([8]; 100 nM) of 91.3% and a normalised viability ([9]; 10 nM) of 94.2%. The normalised viability ([10]; 100 nM) was 84.3%, the normalised viability ([11]; 100 nM) was 96.6% and the normalised viability ([12]; 100 nM) was 97.6%. The normalised viability ([13]; 100 nM) was 94.2% and the normalised viability ([14]; 100 nM) was 58.5%.

In the case of C[C@]12CC[C@@H]3c4ccc(O)cc4C[C@@H](CCCCCCCCC[S+]([O-])CCCC(F)(F)C(F)(F)F)[C@H]3[C@@H]1CC[C@@H]2O (stereo partly drawn) [Fulvestrant], the normalised viability ([1]; 100 nM) was 89.2%, the normalised viability ([2]; 100 nM) was 78.5% and the normalised viability ([3]; 10 nM) was 112%. It also gave a normalised viability ([4]; 10 nM) of 95.8%, a normalised viability ([5]; 10 nM) of 105% and a normalised viability ([6]; 100 nM) of 77.8%. The normalised viability ([7]; 100 nM) was 113%, the normalised viability ([8]; 100 nM) was 91.9% and the normalised viability ([9]; 10 nM) was 93.3%. It also gave a normalised viability ([10]; 100 nM) of 85.5%, a normalised viability ([11]; 100 nM) of 79.9% and a normalised viability ([12]; 100 nM) of 103%. The normalised viability ([13]; 100 nM) was 87.2% and the normalised viability ([14]; 100 nM) was 94.3%.

Compound O=P1(NCCCl)OCCCN1CCCl (stereo not drawn) [Ifosfamide] has a normalised viability ([1]; 100 nM) of 120%, a normalised viability ([2]; 100 nM) of 91.2% and a normalised viability ([3]; 10 nM) of 107%. It also gave a normalised viability ([4]; 10 nM) of 95.5%, a normalised viability ([5]; 10 nM) of 110% and a normalised viability ([6]; 100 nM) of 83.4%. The normalised viability ([7]; 100 nM) was 108%, the normalised viability ([8]; 100 nM) was 107% and the normalised viability ([9]; 10 nM) was 125%. The normalised viability ([10]; 100 nM) was 94.9%, the normalised viability ([11]; 100 nM) was 108% and the normalised viability ([12]; 100 nM) was 95.3%. For the same compound, the normalised viability ([13]; 100 nM) was 98.7% and the normalised viability ([14]; 100 nM) was 70.5%.

CC(C)Cn1cnc2c(N)nc3ccccc3c21 [Imiquimod] was tested, and the normalised viability ([1]; 100 nM) was 101%, the normalised viability ([2]; 100 nM) was 98.5% and the normalised viability ([3]; 10 nM) was 102%. For the same compound, the normalised viability ([4]; 10 nM) was 95.2%, the normalised viability ([5]; 10 nM) was 93.5% and the normalised viability ([6]; 100 nM) was 120%. For the same compound, the normalised viability ([7]; 100 nM) was 103%, the normalised viability ([8]; 100 nM) was 87.1% and the normalised viability ([9]; 10 nM) was 99.5%. The normalised viability ([10]; 100 nM) was 98.1%, the normalised viability ([11]; 100 nM) was 87.4% and the normalised viability ([12]; 100 nM) was 85.6%. The normalised viability ([13]; 100 nM) was 106% and the normalised viability ([14]; 100 nM) was 112%.

Work on CC1(C)NC(=O)N(c2ccc([N+](=O)[O-])c(C(F)(F)F)c2)C1=O [Nilutamide] yielded a normalised viability ([1]; 100 nM) of 119%, a normalised viability ([2]; 100 nM) of 99.4% and a normalised viability ([3]; 10 nM) of 101%. The normalised viability ([4]; 10 nM) was 105%, the normalised viability ([5]; 10 nM) was 100% and the normalised viability ([6]; 100 nM) was 96.2%. The normalised viability ([7]; 100 nM) was 95.5%, the normalised viability ([8]; 100 nM) was 99.7% and the normalised viability ([9]; 10 nM) was 149%. It also gave a normalised viability ([10]; 100 nM) of 111%, a normalised viability ([11]; 100 nM) of 106% and a normalised viability ([12]; 100 nM) of 96.6%. For the same compound, the normalised viability ([13]; 100 nM) was 94.2% and the normalised viability ([14]; 100 nM) was 95.4%.

Cc1ccc(C(=O)Nc2ccc(CN3CCN(C)CC3)c(C(F)(F)F)c2)cc1C#Cc1cnc2cccnn12 [Ponatinib] showed a normalised viability ([1]; 10 nM) of 103%, a normalised viability ([2]; 10 nM) of 105% and a normalised viability ([3]; 1 nM) of 96.6%. For the same compound, the normalised viability ([4]; 1 nM) was 95.9%, the normalised viability ([5]; 1 nM) was 105% and the normalised viability ([6]; 10 nM) was 100%. For the same compound, the normalised viability ([7]; 10 nM) was 114%, the normalised viability ([8]; 10 nM) was 91.6% and the normalised viability ([9]; 1 nM) was 117%. It also gave a normalised viability ([10]; 10 nM) of 99.6%, a normalised viability ([11]; 10 nM) of 101% and a normalised viability ([12]; 10 nM) of 101%. It also gave a normalised viability ([13]; 10 nM) of 110% and a normalised viability ([14]; 10 nM) of 78%.
